Data as given in the CheMixHub ionic liquid set.
Values joined by “and” are separate entries in the source; they are usually repeats but may differ in a detail not shown here. Identical values can stand only once. ± gives the uncertainty stated by the source.

Experiment: xn = mol fraction of the nth substance listed
Conditions: 101.3 kPa

## CCCC[N+]1(C)CCCCC1.F[P-](F)(F)(F)(F)F + CCCC[n+]1cccc(C)c1.F[P-](F)(F)(F)(F)F + CCCC[N+]1(C)CCCC1.F[P-](F)(F)(F)(F)F
298.15 K, x2 = 0.4, x1 = 0.24
  viscosity: 1666 ± 82 mPa·s and 1686 ± 230 mPa·s
298.15 K, x2 = 0.4, x1 = 0.3
  viscosity: 1857 ± 94 mPa·s
298.15 K, x2 = 0.4, x1 = 0.36
  viscosity: 2084 ± 110 mPa·s
298.15 K, x2 = 0.4, x1 = 0.42
  viscosity: 2332 ± 120 mPa·s
298.15 K, x2 = 0.4, x1 = 0.48
  viscosity: 2615 ± 140 mPa·s
298.15 K, x2 = 0.4, x1 = 0.54
  viscosity: 2945 ± 170 mPa·s
303.15 K, x2 = 0.4, x1 = 0.06
  viscosity: 794 ± 33 mPa·s
303.15 K, x2 = 0.4, x1 = 0.12
  viscosity: 916 ± 39 mPa·s
303.15 K, x2 = 0.4, x1 = 0.18
  viscosity: 964 ± 42 mPa·s
303.15 K, x2 = 0.4, x1 = 0.24
  viscosity: 1130 ± 52 mPa·s and 1143 ± 130 mPa·s
303.15 K, x2 = 0.4, x1 = 0.3
  viscosity: 1248 ± 59 mPa·s
303.15 K, x2 = 0.4, x1 = 0.36
  viscosity: 1390 ± 68 mPa·s
303.15 K, x2 = 0.4, x1 = 0.42
  viscosity: 1544 ± 77 mPa·s
303.15 K, x2 = 0.4, x1 = 0.48
  viscosity: 1714 ± 87 mPa·s
303.15 K, x2 = 0.4, x1 = 0.54
  viscosity: 1917 ± 100 mPa·s
308.15 K, x2 = 0.3, x1 = 0.28
  viscosity: 964 ± 96 mPa·s
308.15 K, x2 = 0.4, x1 = 0.06
  viscosity: 568 ± 22 mPa·s
308.15 K, x2 = 0.4, x1 = 0.12
  viscosity: 648 ± 26 mPa·s
308.15 K, x2 = 0.4, x1 = 0.18
  viscosity: 680 ± 28 mPa·s
308.15 K, x2 = 0.4, x1 = 0.24
  viscosity: 783 ± 33 mPa·s and 791 ± 72 mPa·s
308.15 K, x2 = 0.4, x1 = 0.3
  viscosity: 859 ± 37 mPa·s
308.15 K, x2 = 0.4, x1 = 0.36
  viscosity: 948 ± 42 mPa·s
308.15 K, x2 = 0.4, x1 = 0.42
  viscosity: 1045 ± 48 mPa·s
308.15 K, x2 = 0.4, x1 = 0.48
  viscosity: 1152 ± 54 mPa·s
308.15 K, x2 = 0.4, x1 = 0.54
  viscosity: 1278 ± 61 mPa·s
308.15 K, x2 = 0.5, x1 = 0.2
  viscosity: 648 ± 54 mPa·s
308.15 K, x2 = 0.6, x1 = 0.16
  viscosity: 534 ± 40 mPa·s
313.15 K, x2 = 0.3, x1 = 0.28
  viscosity: 684 ± 57 mPa·s
313.15 K, x2 = 0.4, x1 = 0.06
  viscosity: 413 ± 15 mPa·s
313.15 K, x2 = 0.4, x1 = 0.12
  viscosity: 467 ± 17 mPa·s
313.15 K, x2 = 0.4, x1 = 0.18
  viscosity: 488 ± 18 mPa·s
313.15 K, x2 = 0.4, x1 = 0.24
  viscosity: 556 ± 21 mPa·s and 561 ± 42 mPa·s
313.15 K, x2 = 0.4, x1 = 0.3
  viscosity: 606 ± 24 mPa·s
313.15 K, x2 = 0.4, x1 = 0.36
  viscosity: 664 ± 27 mPa·s
313.15 K, x2 = 0.4, x1 = 0.42
  viscosity: 727 ± 30 mPa·s
313.15 K, x2 = 0.4, x1 = 0.48
  viscosity: 795 ± 34 mPa·s
313.15 K, x2 = 0.4, x1 = 0.54
  viscosity: 875 ± 38 mPa·s
313.15 K, x2 = 0.5, x1 = 0.2
  viscosity: 465 ± 32 mPa·s
313.15 K, x2 = 0.6, x1 = 0.16
  viscosity: 385 ± 24 mPa·s
313.15 K, x2 = 0.7, x1 = 0.12
  viscosity: 325 ± 19 mPa·s
318.15 K, x2 = 0.2, x1 = 0.32
  viscosity: 596 ± 45 mPa·s
318.15 K, x2 = 0.3, x1 = 0.28
  viscosity: 495 ± 35 mPa·s
318.15 K, x2 = 0.4, x1 = 0.06
  viscosity: 306 ± 10 mPa·s
318.15 K, x2 = 0.4, x1 = 0.12
  viscosity: 344 ± 12 mPa·s
318.15 K, x2 = 0.4, x1 = 0.18
  viscosity: 358 ± 12 mPa·s
318.15 K, x2 = 0.4, x1 = 0.24
  viscosity: 404 ± 14 mPa·s and 407 ± 26 mPa·s
318.15 K, x2 = 0.4, x1 = 0.3
  viscosity: 437 ± 16 mPa·s
318.15 K, x2 = 0.4, x1 = 0.36
  viscosity: 476 ± 18 mPa·s
318.15 K, x2 = 0.4, x1 = 0.42
  viscosity: 518 ± 20 mPa·s
318.15 K, x2 = 0.4, x1 = 0.48
  viscosity: 563 ± 22 mPa·s
318.15 K, x2 = 0.4, x1 = 0.54
  viscosity: 615 ± 24 mPa·s
318.15 K, x2 = 0.5, x1 = 0.2
  viscosity: 340 ± 20 mPa·s
318.15 K, x2 = 0.6, x1 = 0.16
  viscosity: 284 ± 15 mPa·s
318.15 K, x2 = 0.7, x1 = 0.12
  viscosity: 241 ± 12 mPa·s
318.15 K, x2 = 0.8, x1 = 0.08
  viscosity: 206 ± 9 mPa·s
323.15 K, x2 = 0.2, x1 = 0.32
  viscosity: 439 ± 28 mPa·s
323.15 K, x2 = 0.3, x1 = 0.28
  viscosity: 365 ± 22 mPa·s
323.15 K, x2 = 0.4, x1 = 0.06
  viscosity: 232 ± 7 mPa·s
323.15 K, x2 = 0.4, x1 = 0.12
  viscosity: 258 ± 8 mPa·s
323.15 K, x2 = 0.4, x1 = 0.18
  viscosity: 268 ± 8 mPa·s
323.15 K, x2 = 0.4, x1 = 0.24
  viscosity: 300 ± 10 mPa·s and 302 ± 16 mPa·s
323.15 K, x2 = 0.4, x1 = 0.3
  viscosity: 323 ± 11 mPa·s
323.15 K, x2 = 0.4, x1 = 0.36
  viscosity: 349 ± 12 mPa·s
323.15 K, x2 = 0.4, x1 = 0.42
  viscosity: 378 ± 13 mPa·s
323.15 K, x2 = 0.4, x1 = 0.48
  viscosity: 408 ± 14 mPa·s
323.15 K, x2 = 0.4, x1 = 0.54
  viscosity: 444 ± 16 mPa·s
323.15 K, x2 = 0.5, x1 = 0.2
  viscosity: 253 ± 12 mPa·s
323.15 K, x2 = 0.6, x1 = 0.16
  viscosity: 213 ± 9 mPa·s
323.15 K, x2 = 0.7, x1 = 0.12
  viscosity: 182 ± 7 mPa·s
323.15 K, x2 = 0.8, x1 = 0.08
  viscosity: 157 ± 6 mPa·s
323.15 K, x2 = 0.9, x1 = 0.04
  viscosity: 136 ± 5 mPa·s
328.15 K, x2 = 0.2, x1 = 0.32
  viscosity: 329 ± 18 mPa·s
328.15 K, x2 = 0.3, x1 = 0.28
  viscosity: 274 ± 14 mPa·s
328.15 K, x2 = 0.4, x1 = 0.06
  viscosity: 178 ± 5 mPa·s
328.15 K, x2 = 0.4, x1 = 0.12
  viscosity: 197 ± 6 mPa·s
328.15 K, x2 = 0.4, x1 = 0.18
  viscosity: 204 ± 6 mPa·s
328.15 K, x2 = 0.4, x1 = 0.24
  viscosity: 227 ± 7 mPa·s and 229 ± 10 mPa·s
328.15 K, x2 = 0.4, x1 = 0.3
  viscosity: 243 ± 7 mPa·s
328.15 K, x2 = 0.4, x1 = 0.36
  viscosity: 261 ± 8 mPa·s
328.15 K, x2 = 0.4, x1 = 0.42
  viscosity: 281 ± 9 mPa·s
328.15 K, x2 = 0.4, x1 = 0.48
  viscosity: 302 ± 10 mPa·s
328.15 K, x2 = 0.4, x1 = 0.54
  viscosity: 327 ± 11 mPa·s
328.15 K, x2 = 0.5, x1 = 0.2
  viscosity: 192 ± 8 mPa·s
328.15 K, x2 = 0.6, x1 = 0.16
  viscosity: 163 ± 6 mPa·s
328.15 K, x2 = 0.7, x1 = 0.12
  viscosity: 140 ± 5 mPa·s
328.15 K, x2 = 0.8, x1 = 0.08
  viscosity: 121 ± 4 mPa·s
328.15 K, x2 = 0.9, x1 = 0.04
  viscosity: 106 ± 3 mPa·s
333.15 K, x2 = 0.2, x1 = 0.32
  viscosity: 250 ± 12 mPa·s
333.15 K, x2 = 0.3, x1 = 0.28
  viscosity: 210 ± 9 mPa·s
333.15 K, x2 = 0.4, x1 = 0.06
  viscosity: 139 ± 4 mPa·s
333.15 K, x2 = 0.4, x1 = 0.12
  viscosity: 153 ± 4 mPa·s
333.15 K, x2 = 0.4, x1 = 0.18
  viscosity: 158 ± 4 mPa·s
333.15 K, x2 = 0.4, x1 = 0.24
  viscosity: 175 ± 5 mPa·s and 176 ± 7 mPa·s
333.15 K, x2 = 0.4, x1 = 0.3
  viscosity: 186 ± 5 mPa·s
333.15 K, x2 = 0.4, x1 = 0.36
  viscosity: 199 ± 6 mPa·s
333.15 K, x2 = 0.4, x1 = 0.42
  viscosity: 214 ± 6 mPa·s
333.15 K, x2 = 0.4, x1 = 0.48
  viscosity: 228 ± 7 mPa·s
333.15 K, x2 = 0.4, x1 = 0.54
  viscosity: 246 ± 8 mPa·s
333.15 K, x2 = 0.5, x1 = 0.2
  viscosity: 149 ± 5 mPa·s
